Measurements from patent US20110015067A1, “Herbicidal Compositions Comprising Pyroxasulfone” (BASF SE, priority 2008, published 2011).

What was measured:
Assay type in all cases: in vivo
[1] = tested on: ALOMY (Alopecurus myosuroides); experiment: pre-emergence greenhouse test; settings: for observed activity in % destruction: pre-emergence
Description: (§1) For the pre-emergence treatment, directly after sowing the active compounds, which had been suspended or emulsified in water, were applied by means of finely distributed nozzles. The containers were irrigated gently to promote germination and growth and subsequently covered with transparent plastic hoods until plant had rooted. This cover caused uniform germination of the tests plants, unless this was adversely affected by active compounds.
(§2) The respective herbicides A and/or safener were formulated as 10% by weight strength suspension concentrate and introduced to the spray liquor with the amount of solvent system used for applying the active compound. Herbicide B and/or safener were used as commercially available formulations and introduced to the spray liquor with the amount of solvent system used for applying the active compound. In the examples, the solvent used was water.
(§3) The test period extended over 20 days. During this time, the plants were tended, and their response to the treatments with active compound was evaluated.
(§4) In the following experiments, the herbicidal activity for the individual herbicide compounds (solo application) and of the mixture was assessed 8 days after treatment (8 DAT) and/or 20 days after treatment (20 DAT).
(§5) The evaluation for the damage caused by the chemical compositions was carried out using a scale from 0 to 100%, compared to the untreated control plants. Here, 0 means no damage and 100 means complete destruction of the plants.

[2] = tested on: AMARE (Amaranthus retroflexus); experiment: pre-emergence greenhouse test; settings: for observed activity in % destruction: pre-emergence
Description: as §1, §2, §3, §4, §5

[3] = tested on: AMBEL (Ambrosia artemisifolia); experiment: pre-emergence greenhouse test
Description: as §1, §2, §3, §4, §5

[4] = tested on: BRAPL (Brachiaria plantaginea); experiment: pre-emergence greenhouse test; settings: pre-emergence, 15 g ai/ha
Description: as §1, §2, §3, §4, §5

[5] = tested on: CCHEC (Cenchrus echinatus); experiment: pre-emergence greenhouse test
Description: as §1, §2, §3, §4, §5

[6] = tested on: COMBE (Commelina benghalensis); experiment: pre-emergence greenhouse test; settings: for observed activity in % destruction: pre-emergence
Description: as §1, §2, §3, §4, §5

[7] = tested on: ECHCG (Echinochloa crus-galli); experiment: pre-emergence greenhouse test; settings: for observed activity in % destruction: pre-emergence
Description: as §1, §2, §3, §4, §5

ERBVI = experiment: pre-emergence greenhouse test
Description: as §1, §2, §3, §4, §5

[8] = tested on: PANDI (Panicum dichotomiflorum); experiment: pre-emergence greenhouse test; settings: pre-emergence
Description: as §1, §2, §3, §4, §5

[9] = tested on: PANMI (Panicum milliaceum); experiment: pre-emergence greenhouse test
Description: as §1, §2, §3, §4, §5

PHBPU (Ipomoea purpurea) = experiment: pre-emergence greenhouse test; settings: PHBPU pre-emergence 15 g ai/ha
Description: as §1, §2, §3, §4, §5

SETVI (Setaria viridis) = experiment: pre-emergence greenhouse test; settings: for observed activity in % destruction: pre-emergence
Description: as §1, §2, §3, §4, §5

SOLNI (Solanum nigrum) = experiment: pre-emergence greenhouse test
Description: as §1, §2, §3, §4, §5

[10] = tested on: AMBEL (Ambrosia artemisifolia); experiment: post-emergence greenhouse test; settings: 3.75 g ai/ha
Description: (§6) For the post-emergence treatment, the test plants were first grown to a height of 3 to 20 cm, depending on the plant habit, and only then treated. Here, the herbicidal compositions were suspended or emulsified in water as distribution medium and sprayed using finely distributing nozzles.
as §2, §3, §4, §5

[11] = tested on: CHEAL (Chenopodium album); experiment: post-emergence greenhouse test; settings: 15 g ai/ha
Description: as §6, §2, §3, §4, §5

[12] = tested on: LOLMU (Lolium multiflorum); experiment: post-emergence greenhouse test; settings: 3.75 g ai/ha
Description: as §6, §2, §3, §4, §5

[13] = tested on: MERAN (Mercurialis annua); experiment: post-emergence greenhouse test; settings: 7.5 g ai/ha
Description: as §6, §2, §3, §4, §5

CC(C)C1(C)N=C(c2nc3ccccc3cc2C(=O)O)NC1=O (centres unmarked) [imazaquin]
observed % destruction 20 DAT ([1]; ALOMY pre-emergence 15 g ai/ha): 75%
observed activity in % destruction ([1]; 3.75 g ai/ha, 8 DAT): 0%
observed activity in % destruction ([1]; 3.75 g ai/ha, 20 DAT): 30%
observed activity in % destruction ([1]; 15 g ai/ha, 8 DAT): 30%
observed activity in % destruction ([1]; 15 g ai/ha, 20 DAT): 75%
observed % destruction 20 DAT ([2]; AMARE pre-emergence 3.75 g ai/ha): 50%
observed % destruction 20 DAT ([2]; AMARE pre-emergence 15 g ai/ha): 70%
observed activity in % destruction ([2]; 3.75 g ai/ha, 8 DAT): 40%
observed activity in % destruction ([2]; 3.75 g ai/ha, 20 DAT): 50%
observed activity in % destruction ([2]; 7.5 g ai/ha, 8 DAT): 50%
observed activity in % destruction ([2]; 7.5 g ai/ha, 20 DAT): 60%
observed % destruction 20 DAT ([3]; AMBEL pre-emergence 3.75 g ai/ha): 50%
observed % destruction 20 DAT ([3]; AMBEL pre-emergence 7.5 g ai/ha): 60%
observed % destruction 20 DAT ([3]; AMBEL pre-emergence 15 g ai/ha): 80%
observed activity in % destruction ([4]; 8 DAT): 20%
observed activity in % destruction ([4]; 20 DAT): 60%
observed % destruction 20 DAT ([5]; CCHEC pre-emergence 3.75 g ai/ha): 20%
observed % destruction 20 DAT ([5]; CCHEC pre-emergence 7.5 g ai/ha): 20%
observed % destruction 20 DAT ([5]; CCHEC pre-emergence 15 g ai/ha): 35%
observed % destruction 20 DAT ([6]; COMBE pre-emergence 3.75 g ai/ha): 35%
observed % destruction 20 DAT ([6]; COMBE pre-emergence 7.5 g ai/ha): 45%
observed activity in % destruction ([6]; 3.75 g ai/ha, 8 DAT): 20%
observed activity in % destruction ([6]; 3.75 g ai/ha, 20 DAT): 35%
observed activity in % destruction ([6]; 7.5 g ai/ha, 8 DAT): 40%
observed activity in % destruction ([6]; 7.5 g ai/ha, 20 DAT): 45%
observed activity in % destruction ([6]; 15 g ai/ha, 8 DAT): 50%
observed activity in % destruction ([6]; 15 g ai/ha, 20 DAT): 70%
observed % destruction 20 DAT ([7]; ECHCG pre-emergence 3.75 g ai/ha): 0%
observed % destruction 20 DAT ([7]; ECHCG pre-emergence 7.5 g ai/ha): 0%
observed % destruction 20 DAT ([7]; ECHCG pre-emergence 15 g ai/ha): 20%
observed activity in % destruction ([7]; 7.5 g ai/ha, 8 DAT): 0%
observed activity in % destruction ([7]; 7.5 g ai/ha, 20 DAT): 0%
observed activity in % destruction ([7]; 15 g ai/ha, 8 DAT): 20%
observed activity in % destruction ([7]; 15 g ai/ha, 20 DAT): 20%
observed % destruction 20 DAT (ERBVI; ERBVI pre-emergence 3.75 g ai/ha): 0%
observed % destruction 20 DAT (ERBVI; ERBVI pre-emergence 7.5 g ai/ha): 20%
observed activity in % destruction ([8]; 3.75 g ai/ha, 8 DAT): 0%
observed activity in % destruction ([8]; 3.75 g ai/ha, 20 DAT): 45%
observed activity in % destruction ([8]; 7.5 g ai/ha, 8 DAT): 20%
observed activity in % destruction ([8]; 7.5 g ai/ha, 20 DAT): 75%
observed activity in % destruction ([8]; 15 g ai/ha, 8 DAT): 40%
observed activity in % destruction ([8]; 15 g ai/ha, 20 DAT): 80%
observed % destruction 20 DAT ([9]; PANMI pre-emergence 3.75 g ai/ha): 30%
observed % destruction 20 DAT ([9]; PANMI pre-emergence 7.5 g ai/ha): 40%
observed % destruction 20 DAT ([9]; PANMI pre-emergence 15 g ai/ha): 45%
observed % destruction 20 DAT (PHBPU (Ipomoea purpurea)): 40%
observed % destruction 20 DAT (SETVI (Setaria viridis); SETVI pre-emergence 15 g ai/ha): 75%
observed activity in % destruction (SETVI (Setaria viridis); 3.75 g ai/ha, 8 DAT): 30%
observed activity in % destruction (SETVI (Setaria viridis); 3.75 g ai/ha, 20 DAT): 30%
observed activity in % destruction (SETVI (Setaria viridis); 15 g ai/ha, 8 DAT): 65%
observed activity in % destruction (SETVI (Setaria viridis); 15 g ai/ha, 20 DAT): 75%
observed % destruction 20 DAT (SOLNI (Solanum nigrum); SOLNI pre-emergence 3.75 g ai/ha): 40%
observed % destruction 20 DAT (SOLNI (Solanum nigrum); SOLNI pre-emergence 7.5 g ai/ha): 70%
observed % destruction 20 DAT (SOLNI (Solanum nigrum); SOLNI pre-emergence 15 g ai/ha): 85%
observed activity in % destruction ([10]; 8 DAT): 20%
observed activity in % destruction ([10]; 20 DAT): 20%
observed activity in % destruction ([11]; 8 DAT): 20%
observed activity in % destruction ([11]; 20 DAT): 10%
observed activity in % destruction ([12]; 8 DAT): 0%
observed activity in % destruction ([12]; 20 DAT): 0%
observed activity in % destruction ([13]; 8 DAT): 20%
observed activity in % destruction ([13]; 20 DAT): 0%
